Tests used:
Assay type in all cases: biochemical
mu opioid receptor (MOR) = mu opioid receptor (MOR) (Homo sapiens, UniProt P35372); test: SPA-based GTP-γ-S binding assay, mu opioid receptor; conditions: membranes, GTP-γ-[35S] SPA; antagonist assay with agonist DAMGO 1 micromolar; read-out: In Vitro Ki Mu
Protocol: (§1) An SPA-based GTP-γ-S assay format was developed based on previous opioid (Emmerson et al., J. Pharm Exp Ther 278, 1121, 1996; Horng et al., Society for Neuroscience Abstracts, 434.6, 2000) and muscarinic (DeLapp et al., JPET 289, 946, 1999) assay formats. Membranes were re-suspended in 20 mM HEPES, 100 mM NaCl, 5 mM MgCl2, 1 mM DTT, and 1 mM EDTA. Fifty (50) […] of GTP-γ-[35S], compound, membrane suspension (20 microgram/well), and wheat germ agglutinin coated SPA beads (1 mg/well) were added to clear bottom 96 well assay plates. GDP ([…]) was added to the membrane solution prior to addition to the assay plates. Plates were sealed and incubated for four hours at room temperature then placed in a refrigerator overnight to allow the beads to settle. Signal stability at 4° C. was determined to be >60 hours. Plates were warmed to room temperature and counted in a Wallac Microbeta scintillation counter.
(§2) For antagonist assays, specific agonists were added at the following concentrations: (MOR) DAMGO 1 micromolar, (DOR) DPDPE 30 nM, (KOR) U69593 300 nM. Kb's were determined by Cheng-Prusoff equation (see Cheng and Prusoff, Biochem. Pharmacol. 22, 3099, 1973).

[1] = target: delta opioid receptor (DOR) (Homo sapiens, UniProt P41143); test: SPA-based GTP-γ-S binding assay, delta opioid receptor; conditions: membranes, GTP-γ-[35S] SPA; antagonist assay with agonist DPDPE 30 nM; read-out: In Vitro Ki Delta
Protocol: as §1, §2

[2] = target: kappa opioid receptor (KOR) (Homo sapiens, UniProt P41145); test: SPA-based GTP-γ-S binding assay, kappa opioid receptor; conditions: membranes, GTP-γ-[35S] SPA; antagonist assay with agonist U69593 300 nM; read-out: In Vitro Ki Kappa
Protocol: as §1, §2

Chain of mu opioid receptor (MOR) (P35372 whole entry): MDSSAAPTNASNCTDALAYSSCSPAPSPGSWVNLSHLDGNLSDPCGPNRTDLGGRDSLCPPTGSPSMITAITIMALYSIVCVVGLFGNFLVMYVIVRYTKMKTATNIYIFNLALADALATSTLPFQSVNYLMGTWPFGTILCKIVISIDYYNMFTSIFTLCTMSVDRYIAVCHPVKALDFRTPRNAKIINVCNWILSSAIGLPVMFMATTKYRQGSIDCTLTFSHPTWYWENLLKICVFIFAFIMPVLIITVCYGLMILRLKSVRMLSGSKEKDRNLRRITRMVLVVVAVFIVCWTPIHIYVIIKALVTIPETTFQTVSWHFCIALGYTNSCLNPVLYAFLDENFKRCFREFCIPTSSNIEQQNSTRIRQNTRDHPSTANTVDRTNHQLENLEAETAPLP
Chain of kappa opioid receptor (KOR) (P41145 whole entry): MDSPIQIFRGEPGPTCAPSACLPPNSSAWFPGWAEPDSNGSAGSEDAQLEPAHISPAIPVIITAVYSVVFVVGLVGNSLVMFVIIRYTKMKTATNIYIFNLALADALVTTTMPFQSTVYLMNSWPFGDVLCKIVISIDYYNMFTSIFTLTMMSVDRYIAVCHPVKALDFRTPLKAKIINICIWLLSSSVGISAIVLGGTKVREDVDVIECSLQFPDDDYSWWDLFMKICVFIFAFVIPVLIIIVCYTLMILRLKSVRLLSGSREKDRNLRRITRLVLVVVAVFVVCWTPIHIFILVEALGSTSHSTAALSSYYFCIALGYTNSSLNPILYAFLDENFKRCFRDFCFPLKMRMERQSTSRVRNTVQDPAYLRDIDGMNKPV
Chain of delta opioid receptor (DOR) (P41143 whole entry): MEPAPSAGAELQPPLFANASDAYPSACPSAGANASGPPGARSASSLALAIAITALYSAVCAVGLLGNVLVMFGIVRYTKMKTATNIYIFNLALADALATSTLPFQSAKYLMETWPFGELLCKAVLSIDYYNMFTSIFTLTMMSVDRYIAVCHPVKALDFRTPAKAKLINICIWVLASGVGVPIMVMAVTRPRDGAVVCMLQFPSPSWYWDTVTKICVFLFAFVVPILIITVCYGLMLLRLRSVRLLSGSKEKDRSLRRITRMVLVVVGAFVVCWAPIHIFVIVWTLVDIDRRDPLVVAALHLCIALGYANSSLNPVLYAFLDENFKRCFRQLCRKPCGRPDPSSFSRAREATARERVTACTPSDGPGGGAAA

| SMILES | Ki (mu opioid receptor (MOR)) [nM] | Ki [1] [nM] | Ki [2] [nM] |
| --- | --- | --- | --- |
| c1csc(CCNCc2ccc(Oc3ccc(C4=NCCN4)cn3)cc2)c1 [Example 5, {4-[5-(4,5-Dihydro-1H-imidazol-2-yl)-pyridin-2-yloxy]-benzyl}-(2-thiophen-2yl-ethyl)amine] | 16.4 | 370 | 32.8 |
| CC(C)CCNCc1ccc(Oc2ccc(C3=NCCN3)cn2)cc1 [Example 4, {4-[5-(4,5-Dihydro-1H-imidazol-2-yl)-pyridin-2-yloxy]-benzyl}-(3-methyl-butyl)-amine] | 9.5 | 120 | 34.1 |
| CC(C)CCNCc1ccc(Oc2ccc(C(=N)N)cn2)cc1 [Example 3, 6-{4-[(3-Methyl-butylamino)-methyl]-phenoxy}-nicotinamidine] | 46.1 | 485 | 134 |
| CC(C)CCNCc1ccc(Oc2ccc(-c3ncc[nH]3)cn2)cc1 [Example 10, {4-[5-(1H-Imidazol-2-yl)-pyridin-2-yloxy]-benzyl}-(3-methyl-butyl)-amine] | 5.77 | 214 | 40.1 |
| CC(C)CCNCc1ccc(Oc2ccc(/C(N)=N/C#N)cn2)cc1 [Example 8, N-Cyano-6-{4-[(3-methyl-butylamino)-methyl]-phenoxy}-nicotinamidine] | 7.83 | 178 | 43.2 |
| CC(C)CCNCc1ccc(Oc2ccc(/C(N)=N/O)cn2)cc1 [Example 2, N-Hydroxy-6-{4-[(3-methyl-butylamino)-methyl]-phenoxy}-nicotinamidine] | 43.4 | 269 | 117 |
| CC(C)CCNCc1ccc(Oc2ccc3c(N)noc3c2)cc1 [Example 11, 6-{4-[(3-Methyl-butylamino)-methyl]-phenoxy}-benzo[d]isoxazol-3-ylamine] | 5.81 | 81.1 | 47.5 |

Source: US7414132B2, “Opioid receptor antagonists” (Eli Lilly and Company, priority 2003, dated 2008)
